Publication PMC8958510 (Journal of Medicinal Chemistry, 2022)

Key:
[1] = target: T1, recombinant human sEH (Homo sapiens, UniProt P34913); assay: Human soluble epoxide hydrolase inhibition, fluorescence-based assay (CMNPC substrate); type: biochemical; details: recombinant human sEH; average of three replicates; read-out: hsEH IC50
T1 sequence (P34913 1-555): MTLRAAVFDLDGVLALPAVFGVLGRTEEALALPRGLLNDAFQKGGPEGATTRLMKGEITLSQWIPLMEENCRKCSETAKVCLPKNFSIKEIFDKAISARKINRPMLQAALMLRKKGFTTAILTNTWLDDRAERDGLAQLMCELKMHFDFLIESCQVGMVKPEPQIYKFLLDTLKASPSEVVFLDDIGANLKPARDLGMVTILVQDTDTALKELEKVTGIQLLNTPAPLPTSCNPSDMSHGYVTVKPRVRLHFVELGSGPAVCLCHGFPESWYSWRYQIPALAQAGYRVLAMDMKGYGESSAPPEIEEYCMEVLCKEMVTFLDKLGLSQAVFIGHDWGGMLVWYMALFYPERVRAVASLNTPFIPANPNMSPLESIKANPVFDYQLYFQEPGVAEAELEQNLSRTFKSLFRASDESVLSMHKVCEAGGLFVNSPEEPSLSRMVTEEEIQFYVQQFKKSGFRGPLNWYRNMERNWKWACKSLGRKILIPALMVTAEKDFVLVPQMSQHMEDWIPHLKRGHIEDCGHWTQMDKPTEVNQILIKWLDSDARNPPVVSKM
Procedure: Human and mouse soluble epoxide hydrolase inhibition assay. The inhibitory activity of
the target compounds toward human and mouse sEH was determined by a fluorescence-based
assay, using purified recombinant human or mouse sEH proteins and CMNPC as a fluorescent
substrate.6 The enzymes were incubated at 30 °C with the inhibitors ([I]final = 0.4-100,000
nM) for 5 min in 100 mM sodium phosphate buffer (200 µL, pH 7.4) containing 0.1 mg mL‒1
of BSA and 1% of DMSO. The substrate (CMNPC) was then added ([S]final = 5 µM). Activity
was assessed by measuring the appearance of the fluorescent 6-methoxynaphthaldehyde
(Molecular Devices). Results were obtained by regression analysis from a linear region of the
curve and are given as IC50 values, i.e., the concentration of the compound that reduces the
sEH activity by 50%. All measurements were performed in triplicate and the mean is

[2] = target: T2, recombinant mouse AChE (Mus musculus, UniProt P21836); assay: Mouse acetylcholinesterase inhibition, Ellman's method; type: biochemical
T2 construct: purchased Bio-Techne, Milan, Italy
T2 sequence (P21836 32-614): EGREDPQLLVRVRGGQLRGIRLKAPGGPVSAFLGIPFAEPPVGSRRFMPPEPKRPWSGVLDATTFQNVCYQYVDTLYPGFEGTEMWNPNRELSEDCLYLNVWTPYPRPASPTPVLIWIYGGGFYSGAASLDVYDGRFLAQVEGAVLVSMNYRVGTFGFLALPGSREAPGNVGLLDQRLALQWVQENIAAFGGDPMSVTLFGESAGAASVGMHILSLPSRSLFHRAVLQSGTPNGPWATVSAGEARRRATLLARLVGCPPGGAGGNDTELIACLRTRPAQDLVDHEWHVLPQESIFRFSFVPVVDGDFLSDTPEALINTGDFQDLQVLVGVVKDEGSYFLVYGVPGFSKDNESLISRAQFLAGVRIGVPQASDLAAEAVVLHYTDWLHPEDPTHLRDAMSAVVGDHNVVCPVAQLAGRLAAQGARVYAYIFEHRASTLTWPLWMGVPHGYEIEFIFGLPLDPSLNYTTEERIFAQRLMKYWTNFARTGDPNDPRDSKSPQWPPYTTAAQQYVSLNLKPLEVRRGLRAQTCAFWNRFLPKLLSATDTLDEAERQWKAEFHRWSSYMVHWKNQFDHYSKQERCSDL
Procedure: Human and mouse acetylcholinesterase and human butyrylcholinesterase inhibition
assay. The inhibitory activity of the target compounds toward recombinant human AChE
(Sigma-Aldrich, Milan, Italy), recombinant mouse AChE (Bio-Techne, Milan, Italy) and
human serum BChE (Sigma-Aldrich, Milan, Italy) was assessed by Ellman’s method,8 using
Stock solutions of the AChEs were prepared by
dissolving enzyme lyophilized powder (hAChE) or diluting the enzyme commercial solution
(mAChE) in 0.1 M potassium phosphate (pH 8.0) containing 0.1% Triton X-100, whereas the
stock solution of hBChE was prepared in 0.1% aq. gelatin and the stock solutions of the
compounds to be tested were made in MeOH (2-4 mM). The assay solution consisted of 0.02
unit mL‒1 of the enzyme, 340 M 5,5’-dithiobis(2-nitrobenzoic acid), and 550 M of the
substrate acetylthiocholine iodide (for AChE assay) or butyrylthiocholine iodide (for BChE
assay) in 0.1 M potassium phosphate (pH 8.0). Blank solutions containing all components
except the enzymes were prepared to account for the non-enzymatic hydrolysis of the
Prior the addition of the substrate, the assay solutions were incubated at 37 °C for 20 min.
After the addition of the substrate, cuvettes were rapidly transferred into a Jasco V-530
double beam spectrophotometer equipped with thermostated cuvette holders (37 °C), in order
for 240 s. For each tested compound, five increasing concentrations were assayed in order to
achieve inhibition percentages of 20‒80%. Each concentration was assayed in triplicate. IC50
values were calculated from the inhibition plot (% inhibition vs log[inhibitor]) and are
expressed as mean ± SEM. Each IC50 value is the average of at least two experiments, each

[3] = Microsomal stability, human liver microsomes; type: in vitro ADME
Procedure: (§1) Microsomal stability screen. The microsomal stability of the target compounds was
(§2) determined at the Innopharma Drug Screening and Pharmacogenomics Platform (Santiago de
(§3) Compostela, Spain). The human, rat and mice pooled microsomes, with a protein content of 20 mg mL‒1, were purchased from Tebu-Xenotech. The compounds were incubated in a 96-well microplate at 37 °C with the microsomes in 50 mM phosphate buffer (pH = 7.4) containing as cofactors 30 mM MgCl2, 10 mM NADP, 100 mM glucose-6-phosphate and 40
(§4) Samples (75 µL) were taken from each well at 0, 10, 20, 40 and 60 min and transferred to a microplate. 4 °C Acetonitrile (75 µL) and internal standard (rolipram) were then added for inactivating the microsomes, and water with 0.5% formic acid (30 µL) was subsequently added for improving the chromatographic conditions, keeping the mixtures at 4 °C. The plate was centrifuged at 46,000 g for 30 min at 15 °C and supernatants were taken and analyzed in a UPLC-MS/MS system (UPLC QSM Waters Acquity) using reverse phase Acquity UPLC® HSST3 1.7 μm (2.1 mm × 50 mm, Waters) as the stationary phase, 0.1% formic acid in water (A) / 0.1% formic acid in acetonitrile (B) as the mobile phase, a flow of 0.8 mL min‒1, and the
(§5) The metabolic stability of the compounds was calculated from the logarithm of the remaining compound at each of the time points studied.

[4] = Microsomal stability, rat liver microsomes; type: in vitro ADME
Procedure: as §1, §2, §3, §4, §5

Which results are given for `O=C(Nc1ccc(OC(F)(F)F)cc1)NC1CCN(C(=O)CCCCNc2c3c(nc4cc(Cl)ccc24)CCCC3)CC1` [12c, 1-{1-{5-[(6-Chloro-1,2,3,4-tetrahydroacridin-9-yl)amino]pentanoyl}piperidin-4-yl}-3-[4-(trifluoromethoxy)phenyl]urea]?
IC50 [1]: 4.6 nM; mAChE potency relative to 6-chlorotacrine [2]: 5 fold; potency toward mAChE relative to hAChE [2]: 3 fold; IC50 ([2]; recombinant mouse AChE, mean ± SEM, read-out: mAChE IC50): 4.12 ± 0.23 nM; % compound remaining non-metabolized, human microsomes ([3]; after 10 min at 37 °C): 82%; % compound remaining non-metabolized, human microsomes ([3]; after 20 min at 37 °C): 74%; microsomal CLint at 1 h ([3]; human, liver microsomes (pooled), pH 7.4, 37 °C): 8 µL/min/mg; half-life at 1 h ([3]; human, liver microsomes (pooled), pH 7.4, 37 °C, read-out: t1/2, human microsomes): 91 min; remaining at 1 h ([3]; human, liver microsomes (pooled), pH 7.4, after 1 h of incubation at 37 °C, read-out: % remaining compound, human microsomes): 55%; % compound remaining unaltered, rat microsomes ([4]; after 10 min): 100%; % compound remaining unaltered, rat microsomes ([4]; after 20 min): 79%; % compound remaining unaltered, rat microsomes ([4]; after 40 min): 50%; microsomal CLint at 1 h, 0.05 µM ([4]; rat, liver microsomes (pooled), pH 7.4, 37 °C): 26 µL/min/mg; half-life at 1 h, 0.05 µM ([4]; rat, liver microsomes (pooled), pH 7.4, 37 °C, read-out: t1/2, rat microsomes): 26 min; remaining at 1 h, 0.05 µM ([4]; rat, liver microsomes (pooled), pH 7.4, after 1 h of incubation at 37 °C, read-out: % remaining compound, rat microsomes): 21%
